Experiments:
[1] = biological target: Sodium-dependent noradrenaline transporter (Homo sapiens, UniProt P23975); test: (§1) On the day of the experiment, the cells were removed from −80° C. or liquid nitrogen and thawed in a room temperature water bath. The cells were dilute to about 1-2E+06 with Freestyle medium. A 1 mL sample (1:2 dilution) was prepared, and the cells were counted. The cells were spun at 1100 rpm for 5 minutes, and the medium was aspirated off. The cells were resuspend in medium at 1.5E+06 cells/mL for about 60,000 cells per well. 40 μL of cells were dispensed per well in the Biocoat plates. The plates were spun at 1100 rpm for 1 minute to improve homogeneity of the cell layer and were incubated at 37° C. for a minimum of 3 hours.; type: cell-based
[2] = biological target: Sodium-dependent dopamine transporter (Homo sapiens, UniProt Q01959); test: as §1, with “plates. […]” for “plates.”, “neurotransmitter transporter dye was prepared in AB prior” for “plates were spun at 1100 rpm for 1 minute”, “use.” for “improve homogeneity of the cell layer and were incubated at 37° C. for a minimum of 3 hours.”; type: cell-based
Chain of Sodium-dependent dopamine transporter (Q01959 whole entry): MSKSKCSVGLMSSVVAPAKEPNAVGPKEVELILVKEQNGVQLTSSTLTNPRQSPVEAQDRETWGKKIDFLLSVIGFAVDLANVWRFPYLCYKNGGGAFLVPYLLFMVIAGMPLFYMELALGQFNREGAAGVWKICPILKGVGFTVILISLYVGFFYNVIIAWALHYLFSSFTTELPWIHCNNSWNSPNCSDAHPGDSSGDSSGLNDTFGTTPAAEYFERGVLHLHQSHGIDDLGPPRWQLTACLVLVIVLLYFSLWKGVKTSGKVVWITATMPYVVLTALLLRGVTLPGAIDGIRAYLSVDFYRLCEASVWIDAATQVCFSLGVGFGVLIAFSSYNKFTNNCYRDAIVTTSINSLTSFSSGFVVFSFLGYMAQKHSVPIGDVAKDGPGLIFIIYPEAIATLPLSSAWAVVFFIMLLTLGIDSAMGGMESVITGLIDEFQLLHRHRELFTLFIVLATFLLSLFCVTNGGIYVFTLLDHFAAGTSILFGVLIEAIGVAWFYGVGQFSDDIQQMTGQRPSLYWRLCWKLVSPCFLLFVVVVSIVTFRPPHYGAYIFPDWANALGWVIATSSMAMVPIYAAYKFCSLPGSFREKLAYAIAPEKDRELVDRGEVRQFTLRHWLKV

Chain of Sodium-dependent noradrenaline transporter (P23975 whole entry): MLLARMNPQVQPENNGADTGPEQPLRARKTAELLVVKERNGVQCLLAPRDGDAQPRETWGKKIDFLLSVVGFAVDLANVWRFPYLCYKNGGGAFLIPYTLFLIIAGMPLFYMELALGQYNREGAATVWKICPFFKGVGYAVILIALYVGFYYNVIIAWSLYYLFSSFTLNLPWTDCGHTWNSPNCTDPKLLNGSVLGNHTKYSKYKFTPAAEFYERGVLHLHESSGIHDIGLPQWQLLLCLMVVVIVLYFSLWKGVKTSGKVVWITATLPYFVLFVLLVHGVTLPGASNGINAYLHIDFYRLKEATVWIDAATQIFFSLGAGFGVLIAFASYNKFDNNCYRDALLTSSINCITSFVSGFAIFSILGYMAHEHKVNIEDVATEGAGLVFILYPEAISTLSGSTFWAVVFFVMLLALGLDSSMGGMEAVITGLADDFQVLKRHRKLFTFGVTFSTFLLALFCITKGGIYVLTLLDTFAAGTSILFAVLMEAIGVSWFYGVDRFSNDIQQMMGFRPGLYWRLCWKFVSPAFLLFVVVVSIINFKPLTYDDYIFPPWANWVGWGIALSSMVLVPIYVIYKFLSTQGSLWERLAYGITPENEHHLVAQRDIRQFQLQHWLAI

Ki [1]: 0.0102 µM
Ki [2]: 0.0566 µM
Compound: CNCC(c1ccc(F)c(Cl)c1)[C@H](O)c1ccccc1 (some centres not stated)

Source: ChEMBL document CHEMBL5726960, “Inhibiting neurotransmitter reuptake” (2018)
